Measured values published in ChEMBL document CHEMBL1146155, “NC-100717: a versatile RGD peptide scaffold for angiogenesis imaging” (Bioorg Med Chem Lett, 2006).
*1 amine or outer side, *2 acyl side, *3 side chain or, on linkers, in order; H or OH if unused. Where a SMILES comes first, the peptide text is derived from it. Bridges are numbered along the chain shown (N, C = ends). Side-chain parts run from the residue outwards. [ ]: non-standard residue; d: D form. The star is where a group is joined. X1 = O=C(COCC(=O)*)NCCOCCOCCOCCOCCOCCNC(=O)CO/N=C/c1ccc(F)cc1; DOTA = O=C(O)CN1CCN(CC(=O)O)CCN(CC(=O)*)CCN(CC(=O)O)CC1; Gly(2R-SCH2CO) = O=C([C@H](N[*:1])SCC(=O)[*:3])[*:2]; X3 = C/C(=N\O)C(C)(C)NCCC(CCNC(C)(C)/C(C)=N/O)CCN*; Gly(αR-SH) = O=C([C@H](N[*:1])S[*:3])[*:2]; Glutaryl = O=C(CCCC(=O)[*:2])[*:1]; X2 = NC(=O)COCC(=O)NCCOCCOCCOCCN*

Assay: Displacement of [125I]echistatin from AlphaVbeta3/AlphaVbeta5 integrin receptor in EAHy 926 cells
Type: cell-based, Homo sapiens

| SMILES | Ki [nM] |
| --- | --- |
| N=C(N)NCCC[C@@H]1NC(=O)[C@@H]2NC(=O)[C@H](CCCCNC(=O)COCC(=O)NCCOCCOCCOCCOCCOCCNC(=O)CO/N=C/c3ccc(F)cc3)NC(=O)CS[C@H](C(=O)NCCOCCOCCOCCNC(=O)COCC(N)=O)NC(=O)[C@H](Cc3ccccc3)NC(=O)[C@H](NC(=O)[C@H](CC(=O)O)NC(=O)CNC1=O)SS2 (K(X1)[Gly(αR-SH)]RGD[Gly(αR-SH)]F[Gly(2R-SCH2CO)]-X2; disulfide 2-6; lactam N-8) | 8.2 |
| N=C(N)NCCC[C@@H]1NC(=O)[C@@H]2NC(=O)[C@H](CCCCN)NC(=O)CS[C@H](C(=O)NCCOCCOCCOCCNC(=O)COCC(N)=O)NC(=O)[C@H](Cc3ccccc3)NC(=O)[C@H](NC(=O)[C@H](CC(=O)O)NC(=O)CNC1=O)SS2 (K[Gly(αR-SH)]RGD[Gly(αR-SH)]F[Gly(2R-SCH2CO)]-X2; disulfide 2-6; lactam N-8) | 6.8 |
| N=C(N)NCCC[C@@H]1NC(=O)[C@@H]2NC(=O)[C@H](CCCCNC(=O)CN3CCN(CC(=O)O)CCN(CC(=O)O)CCN(CC(=O)O)CC3)NC(=O)CS[C@H](C(=O)NCCOCCOCCOCCNC(=O)COCC(N)=O)NC(=O)[C@H](Cc3ccccc3)NC(=O)[C@H](NC(=O)[C@H](CC(=O)O)NC(=O)CNC1=O)SS2 (K(DOTA)[Gly(αR-SH)]RGD[Gly(αR-SH)]F[Gly(2R-SCH2CO)]-X2; disulfide 2-6; lactam N-8) | 3.2 |
| C/C(=N\O)C(C)(C)NCCC(CCNC(=O)CCCC(=O)NCCCC[C@@H]1NC(=O)CS[C@H](C(=O)NCCOCCOCCOCCNC(=O)COCC(N)=O)NC(=O)[C@H](Cc2ccccc2)NC(=O)[C@@H]2NC(=O)[C@H](CC(=O)O)NC(=O)CNC(=O)[C@H](CCCNC(=N)N)NC(=O)[C@H](NC1=O)SS2)CCNC(C)(C)/C(C)=N/O (K([Glutaryl-X3])[Gly(αR-SH)]RGD[Gly(αR-SH)]F[Gly(2R-SCH2CO)]-X2; disulfide 2-6; lactam N-8) | 3.1 |
| CC[N+]1=C(/C=C/C=C/C=C2/N(CCCCCC(=O)NCCCC[C@@H]3NC(=O)CS[C@H](C(=O)NCCOCCOCCOCCNC(=O)COCC(N)=O)NC(=O)[C@H](Cc4ccccc4)NC(=O)[C@@H]4NC(=O)[C@H](CC(=O)O)NC(=O)CNC(=O)[C@H](CCCNC(=N)N)NC(=O)[C@H](NC3=O)SS4)c3ccc4c(S(=O)(=O)O)cc(S(=O)(=O)O)cc4c3C2(C)C)C(C)(C)c2c1ccc1c(S(=O)(=O)[O-])cc(S(=O)(=O)O)cc21 | 0.75 |
